Some results are limits rather than exact numbers.

The results in this text go back to US11696895B2, “Fine particle coating (drug-containing hollow particle and method for manufacturing same)” (Sumitomo Pharma Co., Ltd., priority 2017, dated 2023).

The nature of data set [1]: Particle size distribution (laser diffraction, volume based). The settings on record: Table 2-2 particle sizes. In kind it is physicochemical. How it is done:
As used herein, “mean particle size” refers to cumulative 50% point of particle size D50 in volume based measurement of powder particles. Such a mean particle size is measured based on volume with a laser diffraction particle size distribution analyzer (e.g., Powrex Corp: […] VIEWER, Shimadzu Corp: SALD-3000J, or […]: HELOS & RODOS).
The particle size distribution of components of interest, macromolecules, other additives, mixed powder of components of interest and other additives, resulting coated component of interest-containing hollow particles, and coatable microparticles was measured based on volume with a laser diffraction particle size distribution analyzer (e.g., Powrex Corp: […] VIEWER or […]: HELOS & RODOS).

Data set [2] is described as follows: Dissolution test (paddle method, revised 16th Japanese Pharmacopoeia), HPLC. The class given is physicochemical. As to conditions: 50% dissolution time after coating / before coating (uncoated nucleus). The method, then: Dissolution tests were conducted using the tablets manufactured in Comparative Example 2 and Example 2. Water of 37° C./900 ML was used as the test solution for measurement at a number of rotations of 50 RPM based on the paddle method of a dissolution test method in the revised 16th Japanese Pharmacopoeia. The measurement times were 10, 15, 30, 45, 60, 90, 120, 360, 720, 1080, and 1440. The sampling solution was filtered and measured by HPLC to calculate the dissolution rate.
<HPLC Measurement Conditions> • Detector: ultraviolet visible spectrophotometer • Measurement wavelength: 285 NM • Column: WATERS ACQUITY UPLC C18 [2.1 MM Φ×30 MM] • Colum temperature: 40° C. • Amount of flow: 0.5 ML/MIN • Amount injected: […] • Sample cooler: 25° C. • Syringe cleansing solution: water/acetonitrile mixture=1/1 • Mobile phase: water/acetonitrile mixture=4/1
A dissolution test was conducted using the particles manufactured in Example 4 and particles manufactured in Comparative Example 1. The test conditions were the same as Test Example 1.
A dissolution test was conducted using the coated component of interest-containing hollow particles manufactured in Example 5. The test conditions were the same as Test Example 1. […] The dissolution time was extended by a factor of 2 or greater. Improvement in the ability to control release of macromolecules constituting nuclear particles was confirmed for all coated component of interest-containing hollow particles using water insoluble particles as coatable microparticles.
A dissolution test was conducted using the particles manufactured in Example 7-2 and tablets manufactured in Example 8-1 and Comparative Examples 8-1 and 8-2. The test conditions were the same as in Test Example 1.
A dissolution test was conducted using the particles manufactured in Example 11 and Comparative Example 11. The test conditions were the same as Test Example 1.
A dissolution test was conducted using the particles manufactured in Comparative Example 12B. The test conditions were the same as Test Example 1.

Consider `NS(=O)(=O)Cc1noc2ccccc12` [Compound A, 1,2-BENZISOXAZOLE-3-METHANESULFONAMIDE], for which, in data set [1], the D10 came to 0.73 µm, the D50 turned out to be 1.99 µm and the D90 was 5.16 µm.

In the case of `COc1cc(N)c(Cl)cc1C(=O)NC[C@H]1CN(CC2CCN(C(=O)CO)CC2)CCO1` [Compound D], the “Ratio of 50% dissolution time with respect to nucleus (JP 1st)” value (“Ratio of 50% dissolution time” below) in data set [2] is on record as at least 63.

Take `CC(=O)Nc1ccc(O)cc1` [Compound E, N-(4-HYDROXYPHENYL)ACETAMIDE]: the “Ratio of 50% dissolution time” value in data set [2] is listed as at least 21.

Take `Cn1c(=O)c2c(ncn2C)n(C)c1=O` [Compound F, 1,3,7-TRIMETHYLPURINE-2,6-DIONE]: in data set [2], the “Ratio of 50% dissolution time” value is given as at least 235.
